Columns and labels:
[1] = system: hTERT promoter (PhTERT) expression; test: SEAP assay (PhTERT-SEAP reporter, H1299); format: cell-based, human; details: Homo sapiens, NCI-H1299, PhTERT-SEAP (H1299); for activity at 1 µM: read-out: Relative SEAP activity (%); for activity at 10 µM / activity at 100 µM: read-out: Relative SEAP activity (%) (converted)
Method: H1299 were grown in RPMI 1640 media supplemented with 10% fetal bovine serum, 100 units/mL penicillin and […] streptomycin in a humidified atmosphere with 5% CO2 at 37° C. Culture media were changed every three days. To establish stable cell lines that the expression of hTERT could be monitored by a reporter system, a about 3.3 kbp DNA fragment ranging from −3338 to +1 bp of the hTERT gene (hTERT promoter, PhTERT) was subcloned upstream to a secreted alkaline phosphatase gene (SEAP) and transfected into H1299 bp electroporation. The stable clones were selected using G418. The stable clones derived from H1299 were cultured using conditions that are similar to their parental cells.
Secreted alkaline phosphatase was used as the reporter system to monitor the transcriptional activity of hTERT. Here, about 10^4 cells each were grown in 96-well plates and incubated at 37° C. for 24 hours and changed with fresh media. Varying amounts of drugs were added and cells were incubated for another 24 hours. Culture media were collected and heated at 65° C. for 10 min to inactivate heat-labile phosphatases. An equal amount of SEAP buffer (2 M diethanolamine, 1 mM MgCl2, and 20 mM L-homoarginine) was added to the media and p-nitrophenyl phosphate was added to a final concentration of 12 mM. Absorptions at 405 nm were taken, and the rate of absorption increase is determined (the increasing rate of absorbance at 405 nm was used to represent the activity of SEAP).

[2] = MTT assay (relative cell survival), H1299; details: human, H1299 non-small cell lung cancer cells (PhTERT-SEAP), Relative MTT viability (%)

| Structure (SMILES) | activity at 1 µM [1] [%] | activity at 10 µM [1] [%] | activity at 100 µM [1] [%] | viability at 72 h, 1 µM [2] [%] | viability at 72 h, 10 µM [2] [%] | viability at 72 h, 100 µM [2] [%] |
| --- | --- | --- | --- | --- | --- | --- |
| O=C1c2ccccc2C(=O)c2c1ccc1nc(CNCc3ccc4c(c3)OCO4)[nH]c21 [CL15, 2-((piperonylamino)methyl)-1H-anthra[1,2-d]imidazole-6,11-dione] | 74.5 ± 14.3 | 74.6 ± 17.4 | 1.32 | 109 ± 2.02 | 103 | 14.2 |
| O=C1c2ccccc2C(=O)c2c1ccc1nc(CNCc3ccc(C(F)(F)F)cc3)[nH]c21 [CL14, 2-((4-(trifluoromethyl)benzylamino)methyl)-1H-anthra[1,2-d]imidazole-6,11-dione] | 51.6 ± 0.68 | 78.5 | 2.56 | 74.3 ± 4.04 | 10.6 | – |
| O=C1c2ccccc2C(=O)c2c1ccc1nc(CCN3CCN(c4ncccn4)CC3)[nH]c21 [CL39, 2-(2-(4-(pyrimidin-2-yl)piperazin-1-yl)ethyl)-1H-anthra[1,2-d]imidazole-6,11-dione] | 83 ± 3.61 | < 50 | -8.09 | 90.7 ± 5.81 | – | – |
| O=C1c2ccccc2C(=O)c2c1ccc1nc(CN3CCN(c4ncccn4)CC3)[nH]c21 [CL29, 2-((4-(pyrimidin-2-yl)piperazin-1-yl)methyl)-1H-anthra[1,2-d]imidazole-6,11-dione] | 111 ± 3.55 | 92.2 | 19.4 | 85.5 ± 3.17 | 73.7 | 28.2 |
| COc1cccc(CN(C)Cc2nc3ccc4c(c3[nH]2)C(=O)c2ccccc2C4=O)c1 [CL09, 2-((3-methoxy-N-methybenzylamino)methyl)-1H-anthra[1,2-d]imidazole-6,11-dione] | 105 ± 3.38 | 78.1 | -3.01 | 96.6 ± 5.02 | 97.6 | 9.24 |
| O=C1c2ccccc2C(=O)c2c1ccc1nc(CN3CCSC3)[nH]c21 [CL23, 2-((thiazolidin-3-yl)methyl)-1H-anthra[1,2-d]imidazole-6,11-dione] | 106 ± 3.01 | 85.6 | 11.9 | 89.3 ± 4.79 | 75.5 | 5.18 |
| N#Cc1ccccc1N1CCN(Cc2nc3ccc4c(c3[nH]2)C(=O)c2ccccc2C4=O)CC1 [CL31, 2-((4-(2-cyanophenyl)piperazin-1-yl)methyl)-1H-anthra[1,2-d]imidazole-6,11-dione] | 106 ± 4.67 | 56.7 | 5.59 | 78.3 ± 5.02 | 61.7 | 21.6 |
| O=C1c2ccccc2C(=O)c2c1ccc1nc(CN3CCN(c4ccccc4F)CC3)[nH]c21 [CL30, 2-((4-(2-fluorophenyl)piperazin-1-yl)methyl)-1H-anthra[1,2-d]imidazole-6,11-dione] | 103 ± 3.44 | 78.2 | -0.29 | 88.4 ± 2.16 | 76.7 | 14.8 |
| CN(C)Cc1nc2ccc3c(c2[nH]1)C(=O)c1ccccc1C3=O [CL02, 2-((dimethylamino)methyl)-1H-anthra[1,2-d]imidazole-6,11-dione] | 83.6 ± 8.52 | < 50 | -2.26 | 98.9 ± 6.37 | > 50 | – |
| O=C(CCCl)Nc1ccc2c(c1NC(=O)CCCl)C(=O)c1ccccc1C2=O [CL34, 1,2-bis(3-chloropropionamido)anthraquinone] | 87.4 ± 4.51 | 12.5 ± 4.35 | -2.74 ± 0.61 | 94.1 ± 3.21 | < 50 | 5.85 ± 2.1 |
| CCCN(C)Cc1nc2ccc3c(c2[nH]1)C(=O)c1ccccc1C3=O [CL05, 2-((methylpropylamino)methyl)-1H-anthra[1,2-d]imidazole-6,11-dione] | 96 ± 6.58 | < 50 | -0.38 | 93.5 ± 7.25 | – | – |
| O=C1c2ccccc2C(=O)c2c1ccc1nc(CN3CCOCC3)[nH]c21 [CL21, 2-(morpholinomethyl)-1H-anthra[1,2-d]imidazole-6,11-dione] | 102 ± 4.81 | 97.3 | 25.6 | 89.8 ± 2.58 | 70.8 | 13.4 |
| O=C1c2ccccc2C(=O)c2c1ccc1nc(CN3CCCCCC3)[nH]c21 [CL18, 2-((azepan-1-yl)methyl)-1H-anthra[1,2-d]imidazole-6,11-dione] | 107 ± 5.16 | 66.5 | 3.79 | 104 ± 6.82 | 85.1 | – |
| O=C1c2ccccc2C(=O)c2c1ccc1nc(CNCc3ccccc3C(F)(F)F)[nH]c21 [CL12, 2-((2-(trifluoromethyl)benzylamino)methyl)-1H-anthra[1,2-d]imidazole-6,11-dione] | 87.3 ± 3.26 | 81.2 | -1.71 | 98.5 ± 5.49 | 96.3 | 6.32 |
| CN1CCN(CCc2nc3ccc4c(c3[nH]2)C(=O)c2ccccc2C4=O)CC1 [CL36, 2-(2-(4-methylpiperazin-1-yl)ethyl)-1H-anthra[1,2-d]imidazole-6,11-dione] | 73.9 ± 3.2 | 7.1 | -3.06 | 87.2 ± 6.98 | < 50 | – |
| CN(Cc1nc2ccc3c(c2[nH]1)C(=O)c1ccccc1C3=O)CC1OCCO1 [CL08, 2-(((1,3-dioxolan-2-yl)-N-methylmethanamino)methyl)-1H-anthra[1,2-d]imidazole-6,11-dione] | 90.4 ± 2.87 | 68.7 | 6.78 | 104 ± 3.91 | 89.8 | 28.3 |
| C=CCN1CCN(Cc2nc3ccc4c(c3[nH]2)C(=O)c2ccccc2C4=O)CC1 [CL26, 2-((4-allylpiperazin-1-yl)methyl)-1H-anthra[1,2-d]imidazole-6,11-dione] | 87.2 ± 1.82 | 16.7 | -6.77 | 86 ± 3.37 | 44.8 | – |
| O=C1c2ccccc2C(=O)c2c1ccc1nc(CCN3CCN(Cc4ccccc4)CC3)[nH]c21 [CL40, 2-(2-(4-benzylpiperazin-1-yl)ethyl)-1H-anthra[1,2-d]imidazole-6,11-dione] | 73 ± 8.24 | – | -7.29 ± 0.0949 | 95.6 ± 8.22 | > 50 | 6.65 |
| O=C1c2ccccc2C(=O)c2c1ccc1nc(CN3CCN(Cc4ccccc4)CC3)[nH]c21 [CL33, 2-((4-benzylpiperazin-1-yl)methyl)-1H-anthra[1,2-d]imidazole-6,11-dione] | 97.8 ± 7.2 | – | -2.7 | 92.6 ± 1.56 | > 50 | 12.7 |
| O=C1c2ccccc2C(=O)c2c1ccc1nc(CN3CCC4(CC3)OCCO4)[nH]c21 [CL19, 2-((1,4-dioxa-8-azaspiro[4.5]decane-8-yl)methyl)-1H-anthra[1,2-d]imidazole-6,11-dione] | 97 ± 1.84 | 95.5 | 14.1 | 103 ± 2.09 | 79.2 | 14.8 |
| CCN(C)Cc1nc2ccc3c(c2[nH]1)C(=O)c1ccccc1C3=O [CL03, 2-((ethylmethylamino)methyl)-1H-anthra[1,2-d]imidazole-6,11-dione] | 97.1 ± 12 | < 50 | -2.69 | 98.9 ± 3.64 | > 50 | – |
| O=C1c2ccccc2C(=O)c2c1ccc1nc(CN3CCSCC3)[nH]c21 [CL22, 2-(thiomorpholinomethyl)-1H-anthra[1,2-d]imidazole-6,11-dione] | 115 ± 2.45 | 76.7 | 4.62 | 91.8 ± 3.61 | 77.5 | 0.93 |
| O=C1c2ccccc2C(=O)c2c1ccc1nc(CN(Cc3ccccn3)Cc3ccccn3)[nH]c21 [CL10, 2-((di-(2-picolyl)amino)methyl)-1H-anthra[1,2-d]imidazole-6,11-dione] | 86.5 ± 3.63 | -6.44 | -7.58 | 101 ± 5.98 | – | – |

— patent publication US8124637B2, “Anthra [1, 2-d]imidazole-6,11-dione derivatives, preparation method and application thereof” (National Defense Medical Center, priority 2010, dated 2012)
